Several values for one entry are separate records, joined by “and”; a condition that tells them apart may be missing. Equal values may be shown once.
Experiments:
293T cells [1] = experiment: Fluorescence detection of Fluc-mRNA (cell transfection efficiency of LNP formulations); format: cell-based
Procedure, shortened: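 293T cells at 10,000 per well, adhered overnight, then given LNPs carrying 0.3 μg Fluc-mRNA (cationic:neutral:structured:polymer-conjugated lipid 49:10:39.5:1.5 molar). After 24 h, luciferase signal read with luciferase kit reagents on an IVIS imaging system as transfection efficiency.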

293T cells [2] = experiment: Cell survival rate assay (CCK-8); format: cell-based
Procedure, shortened: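 293T cells seeded at 10,000 per well and grown overnight, then exposed for 24 h to LNPs (cationic/neutral/structured/PEG lipids 49:10:39.5:1.5) carrying 1.5 μg Fluc-mRNA, or Lipofectamine 3000. Viability read by CCK-8, 1 h incubation, absorbance at 450 nm.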

female BALB/C mice = experiment: Mouse in vivo imaging of Fluc-mRNA LNP formulations; parameters: average radiation intensity (mRNA expression): unit not given here; settings: for average radiation intensity (mRNA expression): 10 μg Fluc-mRNA LNP intramuscularly
Procedure, shortened: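 Female BALB/C mice (4–6 weeks, 17–19 g) received LNP carrying 10 μg Fluc-mRNA intramuscularly. Imaging substrate given intraperitoneally at 6 h, 24 h, 48 h and 7 d; after 5 min free movement, average radiance read by IVIS Spectrum imaging.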

[3] = Particle size and polydispersity index (PDI) of nanolipid particles, dynamic light scattering; format: physicochemical; settings: LNP formulation prepared from the named cationic lipid, 25° C
Protocol: The particle size and polydispersity index (PDI) were determined by dynamic light scattering method using a Malvern laser particle size analyzer. 10 μL of liposome solution was diluted to 1 mL with RNase-free deionized water and added to a sample pool. Each sample was measured three times. The measurement conditions were: 90° scattering angle, 25° C.

SMILES: CCCCCCCCCCCOC(=O)CCCCCN(CCCCCCCC(=O)OCC(CCCCCCCC)CCCCCCCC)CCN(C)CCO [YK-202]
- RLU / cell transfection efficiency, times that of ALC-0315 (293T cells [1]; Fluc-mRNA LNP): 13.95 times
- RLU / cell transfection efficiency, times that of HHMA (293T cells [1]; Fluc-mRNA LNP): 14.27 times
- RLU / cell transfection efficiency, times that of Lipofectamine 3000 (293T cells [1]; Fluc-mRNA LNP): 24.94 times
- RLU / cell transfection efficiency, times that of YK-009 (293T cells [1]; Fluc-mRNA LNP): 5.84 times
- RLU / cell transfection efficiency, times that of compound 21 (293T cells [1]; Fluc-mRNA LNP): 21.08 times and 21 times
- RLU / cell transfection efficiency, times that of compound 23 (293T cells [1]; Fluc-mRNA LNP): 22.49 times and 22 times
- cell transfection efficiency, times that of YK-223 (293T cells [1]; Fluc-mRNA LNP): 399.37 times
- cell transfection efficiency, times that of YK-224 (293T cells [1]; Fluc-mRNA LNP): 340.35 times
- cell transfection efficiency, times that of YK-226 (293T cells [1]; Fluc-mRNA LNP): 519.55 times
- fluorescence absorption value / cell transfection efficiency, times that of YK-203 (293T cells [1]; Fluc-mRNA LNP): 7.74 times
- fluorescence absorption value / cell transfection efficiency, times that of YK-204 (293T cells [1]; Fluc-mRNA LNP): 82 times and 82.30 times
- fluorescence absorption value / cell transfection efficiency, times that of YK-205 (293T cells [1]; Fluc-mRNA LNP): 29.11 times
- fluorescence absorption value / cell transfection efficiency, times that of YK-208 (293T cells [1]; Fluc-mRNA LNP): 7.76 times
- fluorescence absorption value / cell transfection efficiency, times that of YK-210 (293T cells [1]; Fluc-mRNA LNP): 6.47 times
- fluorescence absorption value / cell transfection efficiency, times that of YK-211 (293T cells [1]; Fluc-mRNA LNP): 21.87 times
- fluorescence absorption value / cell transfection efficiency, times that of YK-212 (293T cells [1]; Fluc-mRNA LNP): 7.66 times
- fluorescence absorption value / cell transfection efficiency, times that of YK-213 (293T cells [1]; Fluc-mRNA LNP): 21.95 times
- fluorescence absorption value / cell transfection efficiency, times that of YK-214 (293T cells [1]; Fluc-mRNA LNP): 6.54 times
- fluorescence absorption value / cell transfection efficiency, times that of YK-215 (293T cells [1]; Fluc-mRNA LNP): 30.53 times
- fluorescence absorption value / cell transfection efficiency, times that of YK-216 (293T cells [1]; Fluc-mRNA LNP): 13.14 times
- fluorescence absorption value / cell transfection efficiency, times that of YK-217 (293T cells [1]; Fluc-mRNA LNP): 416.94 times
- fluorescence absorption value / cell transfection efficiency, times that of YK-218 (293T cells [1]; Fluc-mRNA LNP): 49.35 times
- fluorescence absorption value / cell transfection efficiency, times that of YK-219 (293T cells [1]; Fluc-mRNA LNP): 19.89 times
- fluorescence absorption value / cell transfection efficiency, times that of YK-220 (293T cells [1]; Fluc-mRNA LNP): 138.44 times
- fluorescence absorption value, times that of YK-222 (293T cells [1]; Fluc-mRNA LNP): 49.41 times
- Relative light unit (RLU) (293T cells [1]; LNP containing 0.3 μg Fluc-mRNA, 24 hours): 29957419 RLU
- Multiples of values that equivalent to YK-201 (293T cells [1]; RLU of YK-201 / RLU of the named lipid): 0.95
- Multiples of values that equivalent to YK-202 (293T cells [1]; RLU of YK-202 / RLU of the named lipid): 1.00
- Cell survival rate (293T cells [2]; LNP containing 1.5 μg Fluc-mRNA, 24 hours, CCK-8): 76.81%
- cell survival rate higher (cytotoxicity reduced) compared with YK-221 (293T cells [2]; difference of rates): 55% and 55.86%
- cell survival rate higher (toxicity lower) than that of YK-204 (293T cells [2]; difference of rates): 34.24%
- cell survival rate higher (toxicity lower) than that of YK-225 (293T cells [2]; difference of rates): 33.40%
- cell survival rate higher than that of ALC-0315 (293T cells [2]; difference of rates): 26.85%
- cell survival rate higher than that of HHMA (293T cells [2]; difference of rates): 11.25%
- cell survival rate higher than that of Lipofectamine 3000 (293T cells [2]; difference of rates): 53.76%
- cell survival rate higher than that of SM-102 (293T cells [2]; difference of rates): 8.26%
- cell survival rate higher than that of YK-203 (293T cells [2]; difference of rates): 41.25%
- cell survival rate higher than that of YK-205 (293T cells [2]; difference of rates): 17.89%
- cell survival rate higher than that of YK-208 (293T cells [2]; difference of rates): 30.13%
- cell survival rate higher than that of YK-210 (293T cells [2]; difference of rates): 38.43%
- cell survival rate higher than that of YK-211 (293T cells [2]; difference of rates): 24.51%
- cell survival rate higher than that of YK-212 (293T cells [2]; difference of rates): 41.55%
- cell survival rate higher than that of YK-213 (293T cells [2]; difference of rates): 35.37%
- cell survival rate higher than that of YK-214 (293T cells [2]; difference of rates): 51.23% and 50%
- cell survival rate higher than that of YK-215 (293T cells [2]; difference of rates): 32.22%
- cell survival rate higher than that of YK-216 (293T cells [2]; difference of rates): 31.01%
- cell survival rate higher than that of YK-217 (293T cells [2]; difference of rates): 34.54%
- cell survival rate higher than that of YK-219 (293T cells [2]; difference of rates): 18.20%
- cell survival rate higher than that of YK-220 (293T cells [2]; difference of rates): 17.82%
- cell survival rate higher than that of YK-222 (293T cells [2]; difference of rates): 43.06%
- cell survival rate higher than that of YK-223 (293T cells [2]; difference of rates): 40.17%
- cell survival rate higher than that of YK-224 (293T cells [2]; difference of rates): 53.34%
- cell survival rate higher than that of YK-226 (293T cells [2]; difference of rates): 48.91%
- cell survival rate higher than that of compound 21 (293T cells [2]; difference of rates): 7.79%
- cell survival rate higher than that of compound 23 (293T cells [2]; difference of rates): 6.71%
- average radiation intensity, times that of ALC-0315 (female BALB/C mice; 6 h): 3.48 times
- average radiation intensity, times that of HHMA (female BALB/C mice; 6 h): 4.59 times
- average radiation intensity, times that of SM-102 (female BALB/C mice; 6 h): 4.32 times
- average radiation intensity, times that of compound 21 (female BALB/C mice; 6 h): 4.89 times
- average radiation intensity, times that of compound 23 (female BALB/C mice; 6 h): 4.94 times
- mRNA expression level, times that of YK-204 (female BALB/C mice; 6 h): 83.29 times
- mRNA expression level, times that of YK-223 (female BALB/C mice; 6 h): 283.49 times
- average radiation intensity (mRNA expression) (female BALB/C mice; 6 h): 2935500
- expression level, times that of YK-215 (female BALB/C mice; 6 hours): 58.06 times
- expression level, times that of YK-217 (female BALB/C mice; 6 hours): 119.40 times
- average radiation intensity, times that of ALC-0315 (female BALB/C mice; 24 h): 11.84 times
- average radiation intensity, times that of HHMA (female BALB/C mice; 24 h): 19.69 times
- average radiation intensity, times that of SM-102 (female BALB/C mice; 24 h): 18.64 times
- average radiation intensity, times that of compound 21 (female BALB/C mice; 24 h): 19.99 times
- average radiation intensity, times that of compound 23 (female BALB/C mice; 24 h): 19.47 times
- mRNA expression level, times that of YK-204 (female BALB/C mice; 24 h): 412.78 times
- mRNA expression level, times that of YK-223 (female BALB/C mice; 24 h): 1208.76 times
- average radiation intensity (mRNA expression) (female BALB/C mice; 24 h): 2158840
- expression level, times that of YK-215 (female BALB/C mice; 24 hours): 316.78 times
- expression level, times that of YK-217 (female BALB/C mice; 24 hours): 814.66 times
- average radiation intensity, times that of ALC-0315 (female BALB/C mice; 48 h): 19.80 times
- average radiation intensity, times that of HHMA (female BALB/C mice; 48 h): 25.64 times
- average radiation intensity, times that of SM-102 (female BALB/C mice; 48 h): 24.71 times
- average radiation intensity, times that of compound 21 (female BALB/C mice; 48 h): 25.15 times
- average radiation intensity, times that of compound 23 (female BALB/C mice; 48 h): 23.54 times
- mRNA expression level, times that of YK-204 (female BALB/C mice; 48 h): 309.43 times
- mRNA expression level, times that of YK-223 (female BALB/C mice; 48 h): 1113.57 times
- average radiation intensity (mRNA expression) (female BALB/C mice; 48 h): 755000
- expression level, times that of YK-215 (female BALB/C mice; 48 hours): 207.42 times
- expression level, times that of YK-217 (female BALB/C mice; 48 hours): 737.30 times
- average radiation intensity, times that of ALC-0315 (female BALB/C mice; 7 d): 5.09 times
- average radiation intensity, times that of HHMA (female BALB/C mice; 7 d): 6.31 times
- average radiation intensity, times that of SM-102 (female BALB/C mice; 7 d): 5.68 times
- average radiation intensity, times that of compound 21 (female BALB/C mice; 7 d): 5.49 times
- average radiation intensity, times that of compound 23 (female BALB/C mice; 7 d): 5.75 times
- expression level, times that of YK-215 (female BALB/C mice; 7 d): 32.87 times
- expression level, times that of YK-217 (female BALB/C mice; 7 d): 64.10 times
- mRNA expression level, times that of YK-204 (female BALB/C mice; 7 d): 44.46 times
- mRNA expression level, times that of YK-223 (female BALB/C mice; 7 d): 76.19 times
- average radiation intensity (mRNA expression) (female BALB/C mice; 7 d): 33524
- mRNA expression level in mice can reach, times that of SM-102 (female BALB/C mice; time point not stated): 24 times
- PDI [3]: 23.4%
- Particle size [3]: 173 nm

— patent publication US20260007601A1, “IONIZABLE CATIONIC LIPID COMPOUND AND COMPOSITION FOR DELIVERING NUCLEIC ACID AND USE THEREOF” (BEIJING YOUCAREKECHUANG PHARMACEUTICAL TECHNOLOGY CO., LTD., priority 2023, published 2026)
